Source: patent US11198704B2, “Butane-tetraol-based amphiphiles and uses thereof” (Industry-University Cooperation Foundation Hanyang …, priority 2016, dated 2021)

How the values were obtained:
[1] = Critical micelle concentration (CMC) using diphenylhexatriene (DPH) fluorescent stain; format: physicochemical; conditions: aqueous solution
Method: A method of measuring the CMC is not particularly limited, but the CMC may be measured using methods well known in the related art. For example, the CMC may be measured by a fluorescence staining method using diphenylhexatriene (DPH).
(§1) Specifically, the critical micelle concentration (CMC) was measured using diphenylhexatriene (DPH) as a fluorescent stain, and the hydrodynamic radii (Rh) of the micelles formed by each preparation (1.0% by weight) were measured through a dynamic light scattering (DLS) experiment.

[2] = Hydrodynamic radius and size distribution of micelles by dynamic light scattering (DLS); format: physicochemical; conditions: detergent 1.0% by weight
Method: A method of measuring the radius of the micelles is not particularly limited, but the radius of the micelles may be measured using methods well known in the related art. For example, the radius of the micelles may be measured through a dynamic light scattering (DLS) experiment.
as §1

[3] = tested on: uric acid-xanthine/H+ symporter (UapA), UapAG411VΔ1-11 GFP fusion; test: Thermal stability of UapA solubilized by detergent, fluorescence size exclusion chromatography (FSEC); set-up: species or system Aspergillus nidulans; conditions: detergent 1.0% by weight; 40° C. for 10 minutes
Method: A UapA protein is a uric acid-xanthine/H^+ symporter in Aspergillus nidulans. An experiment for measuring structural stability of a uric acid-xanthine/H^+ symporter (UapA) by BTMs in an aqueous solution was performed. The structural stability of UapA was measured using fluorescence size exclusion chromatography (FSEC).
Specifically, UapAG411VΔ1-11 (hereinafter referred to as ‘UapA’) was expressed as a GFP fusion protein in a Saccharomyces cerevisiae FGY217 strain, and divided into a sample buffer (20 mM Tris (pH 7.5), 150 mM NaCl, 0.03% DDM, and 0.6 mM xanthine). This procedure was performed according to the method disclosed in the article by J. Leung et al. (Mol. Membr. Biol. 2013, 30, 32-42). Membranes containing UapA were re-suspended in PBS (10 mM imidazole pH 8.0, 150 mM NaCl, and 10% glycerol), and a concentration of proteins was measured. […] 100 μL aliquots were removed from the respective tubes, and fluorescence reading on each sample was performed before and after the aliquots were ultracentrifuged at 150,000 g for 10 minutes to remove insoluble matter. Water-soluble fractions remaining under each condition were subjected to fluorescence SEC (FSEC) using a Superose 6 column (GE Healthcare) equilibrated with a buffer containing a proper preparation (DDM or BTM).

[4] = tested on: leucine transporter (LeuT); test: Structural stability of LeuT, [3H]-Leu binding by scintillation proximity assay (SPA); format: biochemical, Aquifex aeolicus; conditions: CMC+0.04% or CMC+0.2% by weight; room temperature; 12 days incubation
Method: An experiment for measuring structural stability of a LeuT protein by BTMs in an aqueous solution was performed. Each amphiphilic compound was used at a concentration of (a) CMC+0.04% by weight or (b) CMC+0.2% by weight, and the ligand-binding characteristics of LeuT were determined through a scintillation proximity assay (SPA) using [^3H]-Leu. The measurement was performed at room temperature at regular intervals during an incubation period of 12 days.
Specifically, thermophilic bacteria (Aquifex aeolicus)-derived wild-type leucine transporter (LeuT) were purified using the method as described above (G. Deckert, et al., Nature 1998, 392, 353-358). LeuT was expressed in E. coli C41 (DE3) transformed with pET16b encoding a C-terminal 8×His-tagged transporter (an expression plasmid was provided from Dr. E. Gouaux, Vollum Institute, Portland, Oreg., USA). […] Protein samples were stored at room temperature for 12 days, and centrifuged for a given time, and the characteristics of the proteins were determined by measuring a [^3H]-leucine binding ability using SPA. […] The entire [^3H]-leucine binding affinity to each sample was measured using a MicroBeta liquid scintillation counter (PerkinElmer).

[5] = molecular target: T1, human β2 adrenergic receptor (β2AR) (Homo sapiens, UniProt P07550); test: Structural stability of β2AR, [3H]-dihydroalprenolol ([3H]-DHA) binding; format: biochemical; conditions: BTMs without CHS, DDM with CHS
T1 construct: made in house
Method: An experiment for determining the structural stability of a human β2 adrenergic receptor (β2AR) and a G-protein-coupled receptor (GPCR) by BTMs was performed. That is, a receptor purified with DDM was diluted with a buffer solution containing only each of the BTMs without cholesteryl hemisuccinate (CHS) or a buffer solution containing DDM with CHS. The final compound concentration was CMC+0.2% by weight, and the ligand-binding characteristics of the receptor were determined through [^3H]-dihydroalprenolol ([^3H]-DHA) binding.
Specifically, a radioactive ligand binding test was performed using the following method. β2AR was purified with 0.1% DDM (D. M. Rosenbaum et al., Science, 2007, 318, 1266-1273.), and finally concentrated to approximately 10 mg/mL (approximately 200 μM). A master binding mixture containing 10 nM [^3H]-dihydroalprenolol (DHA) supplemented with 0.5 mg/mL BSA in each 0.2% amphiphilic compound (DDM or BTMs) was prepared using the β2AR purified with DDM. The ligand-binding characteristics of the receptor purified with the amphiphilic compound at 0.2 pmol was monitored at regular intervals while the receptor was incubated at room temperature for 3 days. The ligand-binding characteristics of the receptor were determined using a water-soluble radioactive ligand binding assay as will be described below. The receptor purified with DDM or each of the BTMs was incubated with 10 nM [^3H]-DHA at room temperature for 30 minutes. The mixture was loaded on a G-50 column, and flow-through fractions were collected using 1 mL of a binding buffer (20 mM HEPES (pH 7.5) supplemented with 0.5 mg/mL BSA and 20×CMC of each amphiphilic compound, 100 mM NaCl). Then, the G-50 column was filled with 15 mL of a scintillation fluid. Receptor-bound [^3H]-DHA was counted using a scintillation counter (Beckman). Non-specific binding of [^3H]-DHA was determined by adding 2 μM of alprenolol (Sigma) in the same binding reaction. The binding affinity of [^3H]-DHA was plotted on a column graph, and each experiment was performed in triplicate.

T1 sequence (P07550 whole entry): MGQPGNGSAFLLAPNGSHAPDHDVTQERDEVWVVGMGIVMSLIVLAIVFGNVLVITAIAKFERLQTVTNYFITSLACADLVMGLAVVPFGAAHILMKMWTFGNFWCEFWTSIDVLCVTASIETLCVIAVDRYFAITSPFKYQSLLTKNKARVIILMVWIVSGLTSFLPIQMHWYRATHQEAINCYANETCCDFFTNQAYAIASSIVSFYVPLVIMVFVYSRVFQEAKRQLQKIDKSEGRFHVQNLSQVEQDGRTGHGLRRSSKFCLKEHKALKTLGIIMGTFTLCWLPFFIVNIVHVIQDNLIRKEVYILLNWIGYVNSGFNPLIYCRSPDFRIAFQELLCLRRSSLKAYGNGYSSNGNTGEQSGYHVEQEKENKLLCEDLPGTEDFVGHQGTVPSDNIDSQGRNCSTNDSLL

SMILES: CCCCCCCCCCCCO[C@@H]1O[C@H](CO)[C@@H](O[C@H]2O[C@H](CO)[C@@H](O)[C@H](O)[C@H]2O)[C@H](O)[C@H]1O [DDM, n-dodecyl-β-D-maltopyranoside, reference compound]
- CMC [1]: ~0.17 mM
- CMC (% by weight) [1]: ~0.0087 % by weight
- Rh (nm), hydrodynamic radius of micelles [2]: 3.4 ± 0.03 nm
- UapA monodisperse peak in FSEC (extraction and structural stability) [3]: monodisperse peak with a relatively high strength
- maintenance of ligand-binding characteristics of LeuT [4]: continuous structural collapse of the solubilized transporter
- initial ligand-binding characteristics of β2AR ([3H]-DHA) ([5]; CMC+0.2% by weight): high ability to bind to a ligand
- remaining ligand-binding ability of β2AR, % of initial ([5]; after 3 days of incubation at room temperature): 10%
